Where a SMILES comes first, the peptide text is derived from it.
How the values were obtained:
Renin (Sus scrofa) = experiment: Compound was evaluated for Non-competitive Renin inhibitory activity against hog kidney renin; Non competitive
Renin = molecular target: T1, Renin (Homo sapiens, UniProt P00797); experiment: Compound was evaluated for competitive Renin inhibitory activity against human amniotic renin; Competitive
T1 sequence (P00797 whole entry): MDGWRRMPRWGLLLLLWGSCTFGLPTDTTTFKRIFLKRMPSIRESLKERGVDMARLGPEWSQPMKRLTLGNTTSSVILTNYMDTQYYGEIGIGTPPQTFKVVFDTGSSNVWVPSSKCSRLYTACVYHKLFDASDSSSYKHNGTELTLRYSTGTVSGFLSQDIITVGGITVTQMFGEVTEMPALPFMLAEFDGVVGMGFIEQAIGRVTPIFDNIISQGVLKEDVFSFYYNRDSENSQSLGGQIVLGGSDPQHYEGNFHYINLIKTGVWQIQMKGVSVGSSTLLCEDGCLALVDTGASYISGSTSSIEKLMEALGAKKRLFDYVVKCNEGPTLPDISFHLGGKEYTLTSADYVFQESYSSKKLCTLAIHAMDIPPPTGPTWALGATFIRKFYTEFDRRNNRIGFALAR

Ki (Renin (Sus scrofa)) | Ki (Renin) | Compound
500 µM |  | COC(=O)[C@H](Cc1ccccc1)NC(=O)[C@@H](NC(=O)[C@H](CC(C)C)NC(=O)[C@@H](N)CC(C)C)C(C)C (H-LLVF-OMe)
 | 1000 µM | COC(=O)[C@H](Cc1ccccc1)NC(=O)[C@@H](NC(=O)CNC(=O)[C@@H](N)CC(C)C)C(C)C (H-LGVF-OMe)
